Each structure is given as a SMILES string.

One assay addresses T1, ER-α in MCF-7 cells (Homo sapiens, UniProt P03372).
T1 sequence (P03372 1-595): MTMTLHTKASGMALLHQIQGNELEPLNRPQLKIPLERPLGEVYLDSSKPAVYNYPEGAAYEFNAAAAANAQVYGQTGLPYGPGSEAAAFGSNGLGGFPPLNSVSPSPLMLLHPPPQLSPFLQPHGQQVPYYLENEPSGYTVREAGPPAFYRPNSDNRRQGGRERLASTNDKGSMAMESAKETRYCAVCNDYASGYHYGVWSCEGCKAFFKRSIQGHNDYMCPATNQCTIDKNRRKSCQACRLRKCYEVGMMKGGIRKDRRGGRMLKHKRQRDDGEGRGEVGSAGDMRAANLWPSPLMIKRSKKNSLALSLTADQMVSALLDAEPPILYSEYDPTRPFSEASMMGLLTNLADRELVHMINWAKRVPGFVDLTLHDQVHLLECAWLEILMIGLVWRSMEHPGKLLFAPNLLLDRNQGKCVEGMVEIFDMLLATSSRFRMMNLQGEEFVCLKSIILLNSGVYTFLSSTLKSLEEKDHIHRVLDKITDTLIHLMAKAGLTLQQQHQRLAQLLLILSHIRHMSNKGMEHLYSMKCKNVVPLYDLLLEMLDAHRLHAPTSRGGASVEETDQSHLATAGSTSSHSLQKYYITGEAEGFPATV
Put plainly: Breast cancer cell ER-α in cell western assay (SP1). It is filed as cell-based. Also on record: endogenous in cells; host or cells: MCF-7. The note with it: 4 or 24 hr post compound addition; for Emax: MCF7, SP1 antibody, read-out: ER-α In Cell Western Assay (SP1) Max Response; for DC50: SP1 antibody, read-out: ER-α In Cell Western Assay (SP1) IC50. An outline of the steps:
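Percent remaining ER: SP1 immunofluorescence normalized to DRAQ5 nuclear stain, compared with untreated controls. Treatment lasted 4 or 24 hr across 0.3–0.000003 μM final in MCF-7.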

Another assay has as its system MCF-7 cells. Briefly: Breast cancer cell viability assay (CellTiter-Glo, 5 days). It is filed as cell-based. The note with it: 5 days' compound exposure; for IC50: Homo sapiens, MCF7, 120 h. The method, boiled down: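 MCF-7 cells, 320 per well in RPMI with 10% FBS and 20 mM HEPES, adhered overnight, then exposed 5 days to an eleven-point semilog dilution (final 0.3-0.000003 μM). CellTiter-Glo luminescence read; % viability = (sample − cell-free background)/(untreated − background) × 100.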
For orientation: In ATP-based viability assays light output follows the ATP content of the culture.

Usually IC50 stands for the concentration needed to halve the response being measured. The low end stands for greater potency in that assay, the high end for weaker potency in that assay. `CC/C(=C(/c1ccc(/C=C/C(=O)O)cc1)c1ccc2c(c1)OCO2)c1ccccc1` [Compound 128, (E)-3-(4-((E)-1-(Benzo[d][1,3]dioxol-5-yl)-2-phenylbut-1-en-1-yl)phenyl)acrylic acid]: at ER-α in MCF-7 cells, the Emax was not below 40% and the DC50 was more than 100 nM. In the assay with MCF-7 cells, the “MCF7 Viability Assay Max Response” value is on record as “++ (++ = a single % value ≧ 40%)” and the IC50 was more than 100 nM.

With `CC/C(=C(/c1ccc(/C=C/C(=O)O)cc1)c1ccc2nccn2c1)c1ccccc1C` [Compound 129, (E)-3-(4-((E)-1-(Imidazo[1,2-a]pyridin-6-yl)-2-(o-tolyl)but-1-en-1-yl)phenyl)acrylic acid], on ER-α in MCF-7 cells, the Emax is not below 40% and the DC50 was not above 100 nM. Moreover, in the assay with MCF-7 cells, the “MCF7 Viability Assay Max Response” value is “++ (++ = a single % value ≧ 40%)” and the IC50 is more than 100 nM.

On to `CC/C(=C(/c1ccc(/C=C/C(=O)O)cc1)c1ccc2ncsc2c1)c1ccccc1` [Compound 130, (E)-3-(4-((E)-1-(Benzo[d]thiazol-6-yl)-2-phenylbut-1-en-1-yl)phenyl)acrylic acid], for which, at ER-α in MCF-7 cells, the Emax is not below 40% and the DC50 was more than 100 nM. Further, in the assay on MCF-7 cells, the “MCF7 Viability Assay Max Response” value was “++ (++ = a single % value ≧ 40%)” and the IC50 was more than 100 nM.

For `CC/C(=C(/c1ccc(/C=C/C(=O)O)cc1)c1ccc2cncn2c1)c1ccccc1` [Compound 133, (E)-3-(4-((E)-1-(Imidazo[1,5-a]pyridin-6-yl)-2-phenylbut-1-en-1-yl)phenyl)acrylic acid], on ER-α in MCF-7 cells, the Emax is not below 40% and the DC50 is more than 100 nM. Further, in the assay on MCF-7 cells, the “MCF7 Viability Assay Max Response” value is reported as “++ (++ = a single % value ≧ 40%)” and the IC50 was more than 100 nM.

In the case of `CC/C(=C(/c1ccc(/C=C/C(=O)O)cc1)c1ccn2cnnc2c1)c1ccccc1` [Compound 134, (E)-3-(4-((E)-1-([1,2,4]Triazolo[4,3-a]pyridin-7-yl)-2-phenylbut-1-en-1-yl)phenyl)acrylic acid], at ER-α in MCF-7 cells, the Emax is less than 40% and the DC50 was more than 100 nM. Besides, in the assay on MCF-7 cells, the “MCF7 Viability Assay Max Response” value is recorded as “+ (+ = a single % value < 40%)” and the IC50 is more than 100 nM.

`CC/C(=C(/c1ccc(/C=C/C(=O)O)cc1)c1ccn2cncc2c1)c1ccccc1` [Compound 135, (E)-3-(4-((E)-1-(Imidazo[1,5-a]pyridin-7-yl)-2-phenylbut-1-en-1-yl)phenyl)acrylic acid]: at ER-α in MCF-7 cells, the Emax was not below 40% and the DC50 was more than 100 nM. Further, in the assay on MCF-7 cells, the “MCF7 Viability Assay Max Response” value is “+ (+ = a single % value < 40%)” and the IC50 is not above 100 nM.

Turning to `CC/C(=C(/c1ccc(/C=C/C(=O)O)cc1)c1ccn2ncnc2c1)c1ccccc1` [Compound 136, (E)-3-(4-((E)-1-([1,2,4]Triazolo[1,5-a]pyridin-7-yl)-2-phenylbut-1-en-1-yl)phenyl)acrylic acid], on ER-α in MCF-7 cells, the Emax is not below 40% and the DC50 was more than 100 nM. For the same molecule, in the assay on MCF-7 cells, the “MCF7 Viability Assay Max Response” value is “+ (+ = a single % value < 40%)” and the IC50 is more than 100 nM.

For `CC/C(=C(/c1ccc(/C=C/C(=O)O)cc1)c1ccc2nonc2c1)c1ccccc1` [Compound 137, (E)-3-(4-((E)-1-(Benzo[c][1,2,5]oxadiazol-5-yl)-2-phenylbut-1-en-1-yl)phenyl)acrylic acid], at ER-α in MCF-7 cells, the Emax was not below 40% and the DC50 is more than 100 nM. Also, in the assay on MCF-7 cells, the “MCF7 Viability Assay Max Response” value is listed as “+ (+ = a single % value < 40%)” and the IC50 is more than 100 nM.

Take `CC/C(=C(/c1ccc(/C=C/C(=O)O)cc1)c1ccn2nncc2c1)c1ccccc1` [Compound 138, (E)-3-(4-((E)-1-([1,2,3]Triazolo[1,5-a]pyridin-5-yl)-2-phenylbut-1-en-1-yl)phenyl)acrylic acid]: on ER-α in MCF-7 cells, the Emax is not below 40% and the DC50 is more than 100 nM. For the same molecule, in the assay with MCF-7 cells, the “MCF7 Viability Assay Max Response” value is reported as “+ (+ = a single % value < 40%)” and the IC50 was more than 100 nM.

Turning to `CC/C(=C(/c1ccc(/C=C/C(=O)O)cc1)c1ccc2scnc2c1)c1ccccc1` [Compound 141, (E)-3-(4-((E)-1-(Benzo[d]thiazol-5-yl)-2-phenylbut-1-en-1-yl)phenyl)acrylic acid], at ER-α in MCF-7 cells, the Emax was not below 40% and the DC50 was not above 100 nM. Further, in the assay on MCF-7 cells, the “MCF7 Viability Assay Max Response” value is reported as “++ (++ = a single % value ≧ 40%)” and the IC50 is not above 100 nM.

With `CC/C(=C(/c1ccc(/C=C/C(=O)O)cc1)c1cc2ccccc2s1)c1ccccc1` [Compound 142, (E)-3-(4-((E)-1-(Benzo[b]thiophen-2-yl)-2-phenylbut-1-en-1-yl)phenyl)acrylic acid], on ER-α in MCF-7 cells, the Emax is not below 40% and the DC50 is not above 100 nM. Also, in the assay with MCF-7 cells, the “MCF7 Viability Assay Max Response” value is reported as “++ (++ = a single % value ≧ 40%)” and the IC50 is not above 100 nM.

On to `CC/C(=C(/c1ccc(/C=C/C(=O)O)cc1)c1ccc2c(cnn2-c2ccccc2)c1)c1ccccc1` [Compound 143, (E)-3-(4-((E)-2-Phenyl-1-(1-phenyl-1H-indazol-5-yl)but-1-en-1-yl)phenyl)acrylic acid], for which, on ER-α in MCF-7 cells, the Emax was not below 40% and the DC50 is more than 100 nM. In addition, in the assay on MCF-7 cells, the “MCF7 Viability Assay Max Response” value is listed as “++ (++ = a single % value ≧ 40%)” and the IC50 is more than 100 nM.

Regarding `CC/C(=C(/c1ccc(/C=C/C(=O)O)cc1)c1ccc2nsnc2c1)c1ccccc1` [Compound 144, (E)-3-(4-((E)-1-(Benzo[c][1,2,5]thiadiazol-5-yl)-2-phenylbut-1-en-1-yl)phenyl)acrylic acid], at ER-α in MCF-7 cells, the Emax was not below 40% and the DC50 is more than 100 nM. For the same molecule, in the assay with MCF-7 cells, the “MCF7 Viability Assay Max Response” value is listed as “++ (++ = a single % value ≧ 40%)” and the IC50 was more than 100 nM.

With `CC/C(=C(/c1ccc(/C=C/C(=O)O)cc1)c1ccc2c(cnn2-c2cccnc2)c1)c1ccccc1` [Compound 145, (E)-3-(4-((E)-2-Phenyl-1-(1-(pyridin-3-yl)-1H-indazol-5-yl)but-1-en-1-yl)phenyl)acrylic acid], at ER-α in MCF-7 cells, the Emax is not below 40% and the DC50 is more than 100 nM. In the assay on MCF-7 cells, the “MCF7 Viability Assay Max Response” value was “++ (++ = a single % value ≧ 40%)” and the IC50 is more than 100 nM.

Regarding `CC/C(=C(/c1ccc(/C=C/C(=O)O)cc1)c1ccc2ocnc2c1)c1ccccc1` [Compound 146], on ER-α in MCF-7 cells, the Emax was not below 40% and the DC50 was more than 100 nM. For the same molecule, in the assay with MCF-7 cells, the “MCF7 Viability Assay Max Response” value was “++ (++ = a single % value ≧ 40%)” and the IC50 is more than 100 nM.

For `CC/C(=C(/c1ccc(/C=C/C(=O)O)cc1)c1ccc2[nH]ncc2c1)c1ccccc1Oc1ccccc1` [Compound 147, (E)-3-(4-((E)-1-(1H-Indazol-5-yl)-2-(2-phenoxyphenyl)but-1-en-1-yl)phenyl)acrylic acid], at ER-α in MCF-7 cells, the Emax is not below 40% and the DC50 is not above 100 nM. In the assay on MCF-7 cells, the “MCF7 Viability Assay Max Response” value was “++ (++ = a single % value ≧ 40%)” and the IC50 is not above 100 nM.

`CC/C(=C(/c1ccc(/C=C/C(=O)O)cc1)c1cnn2ccccc12)c1ccccc1` [Compound 148, (E)-3-(4-((E)-2-Phenyl-1-(pyrazolo[1,5-a]pyridin-3-yl)but-1-en-1-yl)phenyl)acrylic acid]: on ER-α in MCF-7 cells, the Emax is not below 40% and the DC50 is more than 100 nM. Besides, in the assay with MCF-7 cells, the “MCF7 Viability Assay Max Response” value is listed as “++ (++ = a single % value ≧ 40%)” and the IC50 is more than 100 nM.

For the molecule `CC/C(=C(/c1ccc(/C=C/C(=O)O)cc1)c1ncc2[nH]ncc2n1)c1ccccc1` [Compound 149, (E)-3-(4-((E)-2-Phenyl-1-(1H-pyrazolo[4,3-d]pyrimidin-5-yl)but-1-en-1-yl)phenyl)acrylic acid], on ER-α in MCF-7 cells, the Emax is not below 40% and the DC50 was more than 100 nM. Also, in the assay on MCF-7 cells, the “MCF7 Viability Assay Max Response” value is given as “+ (+ = a single % value < 40%)” and the IC50 is more than 100 nM.

As to `CC/C(=C(/c1ccc(/C=C/C(=O)O)cc1)c1ccc(O)nc1)c1ccccc1` [Compound 152, (E)-3-(4-((E)-1-(6-Hydroxypyridin-3-yl)-2-phenylbut-1-en-1-yl)phenyl)acrylic acid], the Emax at ER-α in MCF-7 cells was not below 40%. Further, in the assay with MCF-7 cells, the “MCF7 Viability Assay Max Response” value is “+ (+ = a single % value < 40%)” and the IC50 was more than 100 nM.

Regarding `Cc1cscc1/C(=C(\c1ccc(/C=C/C(=O)O)cc1)c1ccc2[nH]ncc2c1)C(C)C` [Compound 154, (E)-3-(4-((E)-1-(1H-Indazol-5-yl)-3-methyl-2-(4-methylthiophen-3-yl)but-1-en-1-yl)phenyl)acrylic acid], at ER-α in MCF-7 cells, the Emax was not below 40% and the DC50 is not above 100 nM. Also, in the assay on MCF-7 cells, the “MCF7 Viability Assay Max Response” value is given as “++ (++ = a single % value ≧ 40%)” and the IC50 was not above 100 nM.
